Key:
[1] = test system: 3D EngNT (RSC96/PC12 co-culture); assay: MTT cell viability in 3D EngNT under demyelination (GGF 200 ng/mL); format: cell-based, rat; conditions: GGF 200 ng/mL pretreatment, 24 h with intestinal metabolites
Experimental: RSC96, a rat-derived Schwann cell line (purchased from ATCC), was cultured in Adv DMEM (Thermo Fisher Scientific, Rodano, MI, Italy) containing 1% penicillin-streptomycin, 2 mM L-glutamine, and 5% FBS [46]. The culture was maintained at 37 °C with 5% CO2 and 95% humidity in a 37 °C incubator. Experiments utilised RSC96 cells from passages 10 to 15, which were sub-cultured two or three times weekly.
The ATCC rat neural PC12 cell line was cultured in Advanced RPMI-1640 medium (Thermo Fisher Scientific, Rodano, MI, Italy). This medium contained 5% FBS, 5% horse serum (HS; Merck Life Science, Rome, Italy), and 2 mM glutamine. Cultures were maintained at 37 °C in a 5% CO2 environment with 95% humidity, ensuring they remained below confluency. Assays utilised cells between passages 3 and 13 [47]. PC12 cells are commonly used for in vitro neuroprotective chemical screening, being a suitable neuronal cell line. […]
A standard method described in the literature was employed to assess cell survival after each stimulation using the MTT-based In Vitro Toxicology Assay Kit (Merck Life Science, Rome, Italy). All solubilised materials, whether treated or untreated, were measured at 570 nm with a 690 nm correction using a spectrometer (Infinite 200 Pro MPlex, Tecan, Männedorf, Switzerland). […]

[2] = test system: TNFα; assay: TNFα ELISA in 3D EngNT supernatants; format: cell-based, rat; conditions: GGF 200 ng/mL pretreatment, 24 h
Excerpt: TNF-α levels in 3D EngNT supernatants were quantified using the TNF-α ELISA Kit (Merck Life Science, Rome, Italy). The results were obtained using a calibration curve (range: 24.58–6000 pg/mL).

[3] = test system: p75; assay: p75 (NGFR) ELISA in 3D EngNT lysates; format: cell-based, rat; conditions: GGF 200 ng/mL pretreatment, 24 h
Experimental: 3[…] lysates were subjected to the Rat NGFR ELISA kit (MyBiosource, San Diego, CA, USA) in accordance with the product specifications. Quantification was obtained through a standard curve ranging from 0.312 to 20 ng/mL.

[4] = test system: NaV 1.7, NaV 1.8, and GABA; assay: Nociception-related biomarker panel by ELISA in 3D EngNT (all markers together); format: cell-based, rat; conditions: GGF 200 ng/mL pretreatment, 24 h
Experimental: Quantification was obtained through a standard curve ranging from 6 to 400 pg/mL. NaV 1.7 was quantified on 3[…] lysates using the SCN9A/Nav1.7 ELISA Kit (LifeSpan BioSciences, Lynnwood, WA, USA). OD was correlated with the standards' concentration (0.312 to 20 ng/mL) using a standard curve. On 3[…] lysates, the Mouse Sodium Channel Protein Type 10 Subunit Alpha (SCN10A) ELISA Kit (MyBiosource, San Diego, CA, USA) quantified NaV 1.8 [64]. Comparing colour intensity (OD) to standard concentration produced a standard curve.

[5] = test system: ERβ; assay: ERβ ELISA in 3D EngNT lysates; format: cell-based, rat; conditions: GGF 200 ng/mL pretreatment, 24 h
Experimental: ERβ concentrations in 3[…] lysates were measured using the Rat ERβ ELISA Kit (Cloud-Clone, Houston, TX, USA).

[6] = test system: MPZ; assay: MPZ ELISA in 3D EngNT lysates; format: cell-based, rat; conditions: GGF 200 ng/mL pretreatment, 24 h
Experimental: (§1) The MPZ content in 3D EngNT cell lysates was determined using the Rat ELISA kit (MyBiosource, San Diego, CA, USA). A standard curve with a range of 0.06 to 18 ng/mL was used to express the concentration as a percentage of ng/mL.

[7] = test system: NRG1; conditions: 3D EngNT, GGF 200 ng/mL pretreatment, 24 h
Experimental: Starting on day 14 of maturation, GGF at 200 ng/mL was added to the EngNT 3D model to damage peripheral neurons and remove substantial myelin [51]. 3D EngNT was then treated for 24 h with the intestinal metabolite of each previously collected sample.
All ELISA analyses were performed according to the manufacturers’ instructions using specific commercial kits for each biomarker. Absorbance was measured at 450 nm using a microplate reader (Infinite 200 ProMPlex, Tecan, Männedorf, Switzerland). For each assay, a standard calibration curve (range depending on the specific kit) was used to determine analyte concentrations.
NRG1 levels in 3D EngNT supernatants were measured using the FineTest NRG1 Rat ELISA Kit (Wuhan, China) [62].

[8] = test system: 3D EngNT (RSC96/PC12 co-culture); assay: ROS production (cytochrome C reduction) in 3D EngNT; format: cell-based, rat; conditions: GGF 200 ng/mL pretreatment, 24 h with intestinal metabolites
Experimental: In the EngNT in vitro model, superoxide anion release was assessed by measuring cytochrome C reduction. Superoxide dismutase and cytochrome C (from Merck Life Science, Rome, Italy) were incubated for 30 min with both treated and untreated cells. Absorbance at 550 nm was recorded using a spectrometer (Infinite 200 Pro MPlex, Tecan, Männedorf, Switzerland). The results, averaged over five tests performed in triplicate, are expressed as the mean ± standard deviation (%) of lower cytochrome C nanomoles per microgram of protein relative to the control (0 line).

[9] = test system: p75, MPZ, NRG1, and Erβ; assay: Neuroprotection biomarker panel by ELISA in 3D EngNT (all markers together); format: cell-based, rat; conditions: for all markers (p75, MPZ, NRG1, ERβ); GGF 200 ng/mL pretreatment
Experimental: as §1
3D EngNT cell lysates were subjected to the Rat NGFR ELISA kit (MyBiosource, San Diego, CA, USA) in accordance with the product specifications. Quantification was obtained through a standard curve ranging from 0.312 to 20 ng/mL.
ERβ concentrations in 3D EngNT lysates were measured using the Rat ERβ ELISA Kit (Cloud-Clone, Houston, TX, USA). The result was given as % ng/mL against a 0.312–20 ng/mL standard curve.

[10] = test system: Caco-2 cells

Row | Compound | cell viability (result in words) [1] | TNFα production (result in words) [2] | p75 signal (result in words) [3] | nociception-related markers NaV 1.7, NaV 1.8, GABA (result in words) [4] | Erβ levels (result in words) [5] | MPZ levels (result in words) [6] | NRG1 levels (result in words) [7] | ROS production, antioxidant response (result in words) [8] | reduction of marker levels compared to the control condition [9] | permeability compared to the control ([10]; at 4 h, fluorescent tracer, normalised to control) | permeability (result in words) ([10]; individual agents, 1–6 h)
1 | O=c1ccn([C@@H]2O[C@H](COP(=O)(O)O)[C@@H](O)[C@H]2O)c(=O)[nH]1 [UMP, Uridine monophosphate] | effects even more similar | most pronounced reduction, superior to ALA | comparable to ALA | neuroprotective and hypothetically anti-nociceptive effects |  |  |  |  |  |  | 
2 | N[C@@H](CCC(=O)N[C@@H](CS)C(=O)NCC(=O)O)C(=O)O [GSH, Glutathione] | almost as strong as ALA and vitamin B6 |  | comparable to ALA | neuroprotective and hypothetically anti-nociceptive effects | comparable to ALA and better than vitamin B6 | stronger, more noticeable impact than ALA and vitamin B6 | more biological effects than ALA and vitamin B6 alone | more pronounced reduction |  |  | 
3 | glial growth factor 2 [GGF] |  |  |  |  |  |  |  |  | about 10% |  | 
4 | CC(=O)N[C@@H](CS)C(=O)O [NAC, N-Acetylcysteine] |  | effect slightly inferior to ALA |  | neuroprotective and hypothetically anti-nociceptive effects | comparable to ALA and better than vitamin B6 | stronger, more noticeable impact than ALA and vitamin B6 |  | greatest effect compared to ALA and vitamin B6 |  | 51% | highest permeability of all agents
